Test results: PMC5879690 (Proceedings of the National Academy of Sciences of the …, 2018)

Target: indoleamine 2,3-dioxygenase (IDO1) (Homo sapiens, UniProt P14902)
Assay: enzyme activity assay, N-formylkynurenine production
Type: biochemical

Chain of indoleamine 2,3-dioxygenase (IDO1) (P14902 whole entry): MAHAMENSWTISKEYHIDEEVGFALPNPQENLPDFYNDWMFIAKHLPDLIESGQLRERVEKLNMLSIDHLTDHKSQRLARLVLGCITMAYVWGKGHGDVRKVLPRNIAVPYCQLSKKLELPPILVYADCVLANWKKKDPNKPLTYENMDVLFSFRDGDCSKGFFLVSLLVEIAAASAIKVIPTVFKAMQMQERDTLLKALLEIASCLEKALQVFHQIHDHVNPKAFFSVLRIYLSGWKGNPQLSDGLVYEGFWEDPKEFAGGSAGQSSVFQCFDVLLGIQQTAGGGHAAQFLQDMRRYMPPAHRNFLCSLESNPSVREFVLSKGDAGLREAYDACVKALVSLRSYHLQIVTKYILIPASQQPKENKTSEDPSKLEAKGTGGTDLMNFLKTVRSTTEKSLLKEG

## N[C@H](Cc1c[nH]c2ccccc12)C(=O)O [D-tryptophan]
  enzyme activity assay, N-formylkynurenine production: D-tryptophan was used as the substrate, which unlike L-tryptophan, does not cause substrate inhibition
